Data reported in patent US20190254299A1, “METHODS OF HANDLING AVOCADOS AND SYSTEM” (AGROFRESH INC., priority 2012, published 2019).

Legend:
Assay type in all cases: in vivo
avocados [1] = assay: Pulp firmness by penetrometer, Example 1 (California)
Protocol: (§1) As used herein, the “pulp firmness” of an avocado is measured using a penetrometer (Fruit Test™ FT40 penetrometer, from Wagner Instruments) having a plunger diameter of 8 mm Performing the test for pulp firmness destroys the avocado that is tested. When avocados are said herein to be treated in a certain way (e.g., harvested, shipped, exposed to a cyclopropene compound, etc.) when they have a certain specified pulp firmness, it is meant that, out of a group of avocados that have been harvested and treated as uniformly as reasonably possible, a sample of a relatively small number of avocados is removed and tested for pulp firmness. The large group of avocados is considered to have the pulp firmness that is the average value of the tests performed on the relatively small sample.
(§2) Pulp firmness was evaluated by peeling open 4 cm^2 of the avocado's peel using a fruit peeler provided with the penetrometer. The penetrometer was mounted on a manual stand with a lever to deliver unifoim force throughout the test. The avocado was placed with the peeled surface beneath the penetrometer tip with probe diameter of 8 mm, and the force required to punch through the pulp was measured. Each fruit was tested in 3 places.
Avocados were harvested in Oxnard, Calif., USA and packed in cardboard boxes and shipped to Sacramento, Calif, USA. After 2 days of transportation part of the avocados were packed in MAP bags. The appropriate weight of avocados was placed in each bag after harvest and shipment. Bags were placed in RPC (Recycle Plastic Container) carrying devices. Avocados then were stored at room temperature (22° C.).
The Test Protocol that was used was as follows. 60 MAP bags were packed. Each hag held approximately 1.7 kg (3.8 lb) of avocados. Three such bags were packed in each RPC. Total weight of avocados in MAP bags was approximately 102 kg. Approximately 51 kg of avocados were placed into RPC identical to those used for the MAP bags. The MAP-packaged avocados were packaged as follows: Nine fruits, approximately 1.7 kg (3.8 lb) were carefully placed into MAP bags, and the bags were sealed by twisting the open side of the bag, folding down the twisted end, and placing a rubber band around the twisted and folded end of the bag.
Avocados were harvested with a very high firmness (not possible to measure with FTA Machines (Firmness Texture Analyzer)). The FTA higher limit was 156 N (351 bf). To monitor the ripening process of the avocados, extra fruits were bagged in MAP bags and the firmness was monitored every day, twice a day until the fruits achieve an average firmness of 111 N (25 lbf). All avocados were kept at room temperature (22° C.) until achieving an average firmness of 111 N (251 bf).
After achieving an average firmness of 111 N (25 lbf) the avocados were randomly divided into treatment sets as follows:
On the same day the avocados achieved 111 N (25 lbf) of average firmness, each treatment set was marked, placed in a hermetical chamber at room temperature (22° C.). All chambers were of equal size and packed the same way. Treatment was for 12 hr. In the chambers for the 3 “MCP” treatment groups, at the beginning of the treatment period, SmartFresh™ SmartTabs™ tablets (AgroFresh, Inc.) were placed in the chamber. The amount of SmartFresh™ SmartTabs™ tablets was chosen to achieve the indicated concentration of 1-methylcyclopropene in the atmosphere of the chamber. The SmartTabs™ tablets were contacted with water in the normal way to release 1-MCP.
After the treatment in the chambers, the RPCs were moved into racks at room temperature for storage and observation. Avocados remained in the same bags throughout the packing, treatment in the chamber, and subsequent storage. Evaluation for skin color and pulp firmness was as follows. Day “zero” was the day the avocados were removed from the chamber and placed in storage. Each test result was the average of 12 fruits.

avocados [2] = assay: Skin color rating, ethylene-treated fruit, Example 6; set-up: key to Skin Color ratings: 1 = full green to 5 = purple-black; settings: for Skin Color ratings: ethylene-treated, 900 ppb MCP
Description: Avocado skin color was rated using the following scale: • 1=full green • 2=green with traces of brown • 3=half green and half brown • 4=brown with traces of green • 5=purple-black
(§3) Avocados were harvested, handled, and tested as in Example 1. Fruits were placed into MAP bags or else into “Poly bags” (plastic bags having more than 10 holes per bag, with each hole larger than 1 cm in diameter).
(§4) Three fruits (approximately 1.8 kg of fruit) were placed in each bag. After placement into bags, fruit was exposed to ethylene (200 ppm for 24 hours at 22° C.). Then, the fruit was exposed to 1-MCP (900 ppb for 15 hours at 22° C.).

avocados [3] = assay: Pulp firmness, ethylene-treated fruit, Example 6; settings: for Pulp Firmness Difference from the Control Sample: ethylene-treated, 900 ppb MCP, control Poly bag, 0 MCP
Protocol: as §1, §2, §3, §4

avocados [4] = assay: RipeLock applications, Example 7; settings: FIG. 5, firmness
Description: Avocados are harvested, handled, and tested as in previous examples. Control samples have no bag and no SmartFresh (1-methylcyclopropene or 1-MCP) application. SmartFresh samples have no bags hut with 600 ppb SmartFresh (1-methylcyclopropene or 1-MCP) application. MAP samples use the 31b MAP bags but no SmartFresh (1-methylcyclopropene or 1-MCP) application. RipeLock 300 samples have the 31b MAP bags with 300 ppb SmartFresh (1-methylcyclopropene or 1-MCP) application. RipeLock 600 samples have the 31b MAP bags with 600 ppb SmartFresh (1-methylcyclopropene or 1-MCP) application. RipeLock 900 samples have the 31b MAP bags with 900 ppb SmartFresh (1-methylcyclopropene or 1-MCP) application. Average fruit in each sample is about 3.81b.
Oxygen (O2) concentrations of samples tested are shown in FIG. 1, and carbon dioxide (CO2) concentrations of samples tested are shown in FIG. 2.

CC1=CC1 [MCP, 1-methylcyclopropene]
Pulp Firmness - Difference from Untreated Control (avocados [1]; MAP bag, 300 ppb MCP, day 0): 90 Ns
Pulp Firmness - Difference from Untreated Control (avocados [1]; MAP bag, 300 ppb MCP, day 1): 22 Ns
Pulp Firmness - Difference from Untreated Control (avocados [1]; MAP bag, 300 ppb MCP, day 2): 36 Ns
Pulp Firmness - Difference from Untreated Control (avocados [1]; MAP bag, 300 ppb MCP, day 3): 41.3 Ns
Pulp Firmness - Difference from Untreated Control (avocados [1]; MAP bag, 300 ppb MCP, day 4): 33 Ns
Pulp Firmness - Difference from Untreated Control (avocados [1]; MAP bag, 600 ppb MCP, day 0): 84 Ns
Pulp Firmness - Difference from Untreated Control (avocados [1]; MAP bag, 600 ppb MCP, day 1): 46 Ns
Pulp Firmness - Difference from Untreated Control (avocados [1]; MAP bag, 600 ppb MCP, day 2): 39 Ns
Pulp Firmness - Difference from Untreated Control (avocados [1]; MAP bag, 600 ppb MCP, day 3): 59.3 Ns
Pulp Firmness - Difference from Untreated Control (avocados [1]; MAP bag, 600 ppb MCP, day 4): 40 Ns
Pulp Firmness - Difference from Untreated Control (avocados [1]; MAP bag, 900 ppb MCP, day 0): 93 Ns
Pulp Firmness - Difference from Untreated Control (avocados [1]; MAP bag, 900 ppb MCP, day 1): 61 Ns
Pulp Firmness - Difference from Untreated Control (avocados [1]; MAP bag, 900 ppb MCP, day 2): 52 Ns
Pulp Firmness - Difference from Untreated Control (avocados [1]; MAP bag, 900 ppb MCP, day 3): 49.3 Ns
Pulp Firmness - Difference from Untreated Control (avocados [1]; MAP bag, 900 ppb MCP, day 4): 46 Ns
improvement over the untreated control (pulp firmness) (avocados [1]; MCP alone at 600 ppb, day 3): 4 lbf
Pulp Firmness - Difference from Untreated Control (avocados [1]; No Bag, 600 ppb MCP, day 0): 29 Ns
Pulp Firmness - Difference from Untreated Control (avocados [1]; No Bag, 600 ppb MCP, day 1): 14 Ns
Pulp Firmness - Difference from Untreated Control (avocados [1]; No Bag, 600 ppb MCP, day 2): 10 Ns
Pulp Firmness - Difference from Untreated Control (avocados [1]; No Bag, 600 ppb MCP, day 3): 17.3 Ns
Pulp Firmness - Difference from Untreated Control (avocados [1]; No Bag, 600 ppb MCP, day 4): 12 Ns
skin color compared with other treatments (avocados [2]; MAP bags and 900 ppb of 1-MCP, days 1, 2, and 3): best skin color
Skin Color ratings (avocados [2]; MAP bag, day 0): 2.1
Skin Color ratings (avocados [2]; MAP bag, day 1): 3.0
Skin Color ratings (avocados [2]; MAP bag, day 2): 3.3
Skin Color ratings (avocados [2]; MAP bag, day 3): 3.4
Skin Color ratings (avocados [2]; MAP bag, day 4): 4.4
Skin Color ratings (avocados [2]; Poly bag, day 0): 4.1
Skin Color ratings (avocados [2]; Poly bag, day 1): 4.9
Skin Color ratings (avocados [2]; Poly bag, day 2): 4.8
Skin Color ratings (avocados [2]; Poly bag, day 3): 4.8
Skin Color ratings (avocados [2]; Poly bag, day 4): 4.9
effect of combining MAP bag and 1-MCP on pulp firmness (avocados [3]; MAP bags and 900 ppb 1-MCP, days 1-4): synergistic benefit to pulp firmness
pulp firmness compared with other treatments (avocados [3]; MAP bags and 900 ppb of 1-MCP, days 1-4): best pulp firmness
Pulp Firmness Difference from the Control Sample (avocados [3]; MAP bag, day 0): 13.8 Ns
Pulp Firmness Difference from the Control Sample (avocados [3]; MAP bag, day 1): 30.4 Ns
Pulp Firmness Difference from the Control Sample (avocados [3]; MAP bag, day 2): 14.6 Ns
Pulp Firmness Difference from the Control Sample (avocados [3]; MAP bag, day 3): 21.4 Ns
Pulp Firmness Difference from the Control Sample (avocados [3]; MAP bag, day 4): 14.8 Ns
Pulp Firmness Difference from the Control Sample (avocados [3]; Poly bag, day 0): 0.1 Ns
Pulp Firmness Difference from the Control Sample (avocados [3]; Poly bag, day 1): 1.1 Ns
Pulp Firmness Difference from the Control Sample (avocados [3]; Poly bag, day 2): 0.6 Ns
Pulp Firmness Difference from the Control Sample (avocados [3]; Poly bag, day 3): 1.4 Ns
Pulp Firmness Difference from the Control Sample (avocados [3]; Poly bag, day 4): 0.1 Ns
combined effect of MAP bags and SmartFresh application (avocados [4]): synergistic effect
